Legend:
[1] = cited from earlier work
[2] = tested on: MPTP treated parkinsonian primates; settings: in vivo; cited from earlier work
[3] = tested on: patients with early idiopathic Parkinson's disease treated with levodopa/DDCI, with no signs of motor complications; assay: EPSILON Phase III study, safety (treatment emergent adverse events)
Excerpt: (§1) The term “treatment-emergent adverse event” is defined as any event not present before exposure to the study drug or any event already present that worsens in either intensity or frequency after first intake of study drug until 2 weeks after last intake of the study drug.
(§2) The factors evaluated include: • Treatment-emergent adverse events (TEAEs) including serious adverse events (SAEs) • Laboratory safety tests (biochemistry, hematology, coagulation and urinalysis) • Physical and neurological examinations • Vital signs • 12-lead ECG readings • Columbia-Suicide Severity Rating Scale (C-SSRS) • Modified Minnesota Impulsive Disorders Interview (mMIDI)

[4] = tested on: PD patients with motor fluctuations; settings: cited from earlier work
[5] = tested on: patients with early idiopathic Parkinson's disease treated with levodopa/DDCI, with no signs of motor complications; settings: human, in vivo, 24 weeks
Excerpt: as §1, §2

Q: Which “increase of minimum plasma concentration (Cmin) for individual levodopa doses” value ([1]; human, in vivo) does the source give for `Cc1c(Cl)c(C)[n+]([O-])c(Cl)c1-c1noc(-c2cc(O)c(O)c([N+](=O)[O-])c2)n1` [opicapone, 2,5-dichloro-3-[5-(3,4-dihydroxy-5-nitrophenyl)-1,2,4-oxadiazol-3-yl]-4,6-dimethylpyridine 1-oxide] here?
A: up to 2.6 fold

Q: What about the “effect on levodopa systemic exposure and peak-to-trough fluctuations” value ([1]; once daily opicapone 50 mg, levodopa given every 3 and 4 hours) of the same compound?
A: increased systemic exposure to levodopa

Q: And the “motor function in MPTP treated parkinsonian primates” value [2]?
A: improvement in motor function

Q: What about the “Any Serious TEAE; %” value ([3]; double blind phase, N = 177) of the same compound?
A: (5.1) %

Q: And the “Any Serious TEAE; n” value ([3]; double blind phase, N = 177)?
A: 9

Q: And the “Any TEAE by Maximum Severity: Mild; %” value ([3]; double blind phase, N = 177)?
A: (29.9) %

Q: And the “Any TEAE by Maximum Severity: Mild; n” value ([3]; double blind phase, N = 177)?
A: 53

Q: What about the “Any TEAE by Maximum Severity: Moderate; %” value ([3]; double blind phase, N = 177) of the same compound?
A: (14.1) %

Q: And the “Any TEAE by Maximum Severity: Moderate; n” value ([3]; double blind phase, N = 177)?
A: 25

Q: What about the “Any TEAE by Maximum Severity: Severe; %” value ([3]; double blind phase, N = 177) of the same compound?
A: (3.4) %

Q: And the “Any TEAE by Maximum Severity: Severe; n” value ([3]; double blind phase, N = 177)?
A: 6

Q: What about the “Any TEAE by Worst Relationship: Definitely Related; %” value ([3]; double blind phase, N = 177) of the same compound?
A: (1.1) %

Q: What about the “Any TEAE by Worst Relationship: Definitely Related; n” value ([3]; double blind phase, N = 177) of the same compound?
A: 2

Q: And the “Any TEAE by Worst Relationship: Not Related (first line, total incl. Unlikely Related); %” value ([3]; double blind phase, N = 177)?
A: (37.3) %

Q: And the “Any TEAE by Worst Relationship: Not Related (first line, total incl. Unlikely Related); n” value ([3]; double blind phase, N = 177)?
A: 66

Q: And the “Any TEAE by Worst Relationship: Not Related (second line, sub-category); %” value ([3]; double blind phase, N = 177)?
A: (36.2) %

Q: What about the “Any TEAE by Worst Relationship: Not Related (second line, sub-category); n” value ([3]; double blind phase, N = 177) of the same compound?
A: 64

Q: And the “Any TEAE by Worst Relationship: Possibly Related; %” value ([3]; double blind phase, N = 177)?
A: (5.6) %

Q: What about the “Any TEAE by Worst Relationship: Possibly Related; n” value ([3]; double blind phase, N = 177) of the same compound?
A: 10

Q: And the “Any TEAE by Worst Relationship: Probably Related; %” value ([3]; double blind phase, N = 177)?
A: (3.4) %

Q: And the “Any TEAE by Worst Relationship: Probably Related; n” value ([3]; double blind phase, N = 177)?
A: 6

Q: What about the “Any TEAE by Worst Relationship: Related; %” value ([3]; double blind phase, N = 177) of the same compound?
A: (10.2) %

Q: What about the “Any TEAE by Worst Relationship: Related; n” value ([3]; double blind phase, N = 177) of the same compound?
A: 18

Q: What about the “Any TEAE by Worst Relationship: Unlikely Related; %” value ([3]; double blind phase, N = 177) of the same compound?
A: (1.1) %

Q: What about the “Any TEAE by Worst Relationship: Unlikely Related; n” value ([3]; double blind phase, N = 177) of the same compound?
A: 2

Q: What about the “Any TEAE leading to Death; %” value ([3]; double blind phase, N = 177) of the same compound?
A: (0.6) %

Q: What about the “Any TEAE leading to Death; n” value ([3]; double blind phase, N = 177) of the same compound?
A: 1

Q: What about the “Any TEAE leading to IMP interruption; %” value ([3]; double blind phase, N = 177) of the same compound?
A: (0.6) %

Q: What about the “Any TEAE leading to IMP interruption; n” value ([3]; double blind phase, N = 177) of the same compound?
A: 1

Q: What about the “Any TEAE leading to Withdrawal; %” value ([3]; double blind phase, N = 177) of the same compound?
A: (1.1) %

Q: What about the “Any TEAE leading to Withdrawal; n” value ([3]; double blind phase, N = 177) of the same compound?
A: 2

Q: And the “Any TEAE; %” value ([3]; double blind phase, N = 177)?
A: (47.5) %

Q: And the “Any TEAE; n” value ([3]; double blind phase, N = 177)?
A: 84

Q: What about the “TEAE Arthralgia; %” value ([3]; double blind phase, N = 177) of the same compound?
A: (2.3) %

Q: And the “TEAE Arthralgia; n” value ([3]; double blind phase, N = 177)?
A: 4

Q: And the “TEAE Back pain; %” value ([3]; double blind phase, N = 177)?
A: (4.5) %

Q: What about the “TEAE Back pain; n” value ([3]; double blind phase, N = 177) of the same compound?
A: 8

Q: What about the “TEAE Dizziness; %” value ([3]; double blind phase, N = 177) of the same compound?
A: (1.1) %

Q: What about the “TEAE Dizziness; n” value ([3]; double blind phase, N = 177) of the same compound?
A: 2

Q: What about the “TEAE Dyskinesia; %” value ([3]; double blind phase, N = 177) of the same compound?
A: (1.7) %

Q: What about the “TEAE Dyskinesia; n” value ([3]; double blind phase, N = 177) of the same compound?
A: 3

Q: And the “TEAE Fall; %” value ([3]; double blind phase, N = 177)?
A: (2.3) %

Q: And the “TEAE Fall; n” value ([3]; double blind phase, N = 177)?
A: 4

Q: And the “TEAE Fatigue; %” value ([3]; double blind phase, N = 177)?
A: (2.8) %

Q: And the “TEAE Fatigue; n” value ([3]; double blind phase, N = 177)?
A: 5

Q: What about the “TEAE Gastrointestinal disorders; %” value ([3]; double blind phase, N = 177) of the same compound?
A: (6.8) %

Q: What about the “TEAE Gastrointestinal disorders; n” value ([3]; double blind phase, N = 177) of the same compound?
A: 12

Q: And the “TEAE General disorders; %” value ([3]; double blind phase, N = 177)?
A: (7.9) %

Q: What about the “TEAE General disorders; n” value ([3]; double blind phase, N = 177) of the same compound?
A: 14

Q: And the “TEAE Headache; %” value ([3]; double blind phase, N = 177)?
A: (0.6) %

Q: And the “TEAE Headache; n” value ([3]; double blind phase, N = 177)?
A: 1

Q: What about the “TEAE Hypertension; %” value ([3]; double blind phase, N = 177) of the same compound?
A: (2.8) %

Q: What about the “TEAE Hypertension; n” value ([3]; double blind phase, N = 177) of the same compound?
A: 5

Q: And the “TEAE Infections and Infestations; %” value ([3]; double blind phase, N = 177)?
A: (15.8) %

Q: And the “TEAE Infections and Infestations; n” value ([3]; double blind phase, N = 177)?
A: 28

Q: And the “TEAE Injury, poisoning and procedural complications; %” value ([3]; double blind phase, N = 177)?
A: (3.4) %

Q: And the “TEAE Injury, poisoning and procedural complications; n” value ([3]; double blind phase, N = 177)?
A: 6

Q: What about the “TEAE Insomnia; %” value ([3]; double blind phase, N = 177) of the same compound?
A: (2.3) %

Q: What about the “TEAE Insomnia; n” value ([3]; double blind phase, N = 177) of the same compound?
A: 4

Q: What about the “TEAE Musculoskeletal and connective tissue disorders; %” value ([3]; double blind phase, N = 177) of the same compound?
A: (10.2) %

Q: What about the “TEAE Musculoskeletal and connective tissue disorders; n” value ([3]; double blind phase, N = 177) of the same compound?
A: 18

Q: What about the “TEAE Nausea; %” value ([3]; double blind phase, N = 177) of the same compound?
A: (2.3) %

Q: And the “TEAE Nausea; n” value ([3]; double blind phase, N = 177)?
A: 4

Q: And the “TEAE Nervous System Disorders; %” value ([3]; double blind phase, N = 177)?
A: (13.6) %

Q: What about the “TEAE Nervous System Disorders; n” value ([3]; double blind phase, N = 177) of the same compound?
A: 24

Q: What about the “TEAE Oedema peripheral; %” value ([3]; double blind phase, N = 177) of the same compound?
A: (2.3) %

Q: What about the “TEAE Oedema peripheral; n” value ([3]; double blind phase, N = 177) of the same compound?
A: 4

Q: And the “TEAE On and off phenomenon; %” value ([3]; double blind phase, N = 177)?
A: (4.5) %

Q: And the “TEAE On and off phenomenon; n” value ([3]; double blind phase, N = 177)?
A: 8

Q: What about the “TEAE Psychiatric disorders; %” value ([3]; double blind phase, N = 177) of the same compound?
A: (7.9) %

Q: What about the “TEAE Psychiatric disorders; n” value ([3]; double blind phase, N = 177) of the same compound?
A: 14

Q: And the “TEAE Tremor; %” value ([3]; double blind phase, N = 177)?
A: (1.1) %

Q: What about the “TEAE Tremor; n” value ([3]; double blind phase, N = 177) of the same compound?
A: 2

Q: What about the “TEAE Upper respiratory tract infection; %” value ([3]; double blind phase, N = 177) of the same compound?
A: (0.6) %

Q: And the “TEAE Upper respiratory tract infection; n” value ([3]; double blind phase, N = 177)?
A: 1

Q: And the “TEAE Urinary tract infection; %” value ([3]; double blind phase, N = 177)?
A: (2.3) %

Q: What about the “TEAE Urinary tract infection; n” value ([3]; double blind phase, N = 177) of the same compound?
A: 4

Q: And the “TEAE Vascular disorders; %” value ([3]; double blind phase, N = 177)?
A: (5.6) %

Q: And the “TEAE Vascular disorders; n” value ([3]; double blind phase, N = 177)?
A: 10

Q: And the “TEAE Vomiting; %” value ([3]; double blind phase, N = 177)?
A: (1.7) %

Q: What about the “TEAE Vomiting; n” value ([3]; double blind phase, N = 177) of the same compound?
A: 3

Q: What about the “increase in treatment emergent adverse events including nervous system disorders such as dyskinesia” value ([3]; opicapone-treated patients vs placebo) of the same compound?
A: no increase

Q: And the tolerability ([3]; patients without clinically diagnosed motor complications)?
A: well tolerated

Q: What about the “mean improvement in NMSS total score” value ([4]; 1-year open-label endpoint) of the same compound?
A: −4.2

Q: What about the “change in NMSS sleep/fatigue score” value ([4]; opicapone 50 mg dose, vs −0.5 with placebo) of the same compound?
A: −1.2 points

Q: What about the “TEAE COVID-19; %” value [5] of the same compound?
A: (8.5) %

Q: What about the “TEAE COVID-19; n” value [5] of the same compound?
A: 15
